Results reported in patent publication US9017673B2, “Peptide analogues comprising at least one type of aminoacylaza-$g(b)3and the use thereof, in particular for therapy” (Centre National de la Recherche Scientifique, priority 2003, dated 2015).
Entries after “also recorded” stand apart in the source; their conditions may differ. Square brackets hold non-standard residues; d marks the D form. NαhTyr = N-alpha-homo tyrosine (backbone-modified residue); NαhAla = N-alpha-homo alanine (backbone-modified residue); NαhLeu = N-alpha-homo leucine (backbone-modified residue); NαhLys = N-alpha-homo lysine (backbone-modified residue)

What was measured:
[1] = test system: T lymphocytes of BALB/c mice immunized with the parent peptide 88-99H4; test: T lymphocyte proliferation (tritiated thymidine) of mice immunized with parent peptide 88-99H4, restimulated in culture with parent peptide or analogues; format: cell-based; conditions: mice immunized with parent 88-99H4; for index of stimulation (IS) relative to the wells without peptide: restimulation peptide 90 μM (printed "to 90 μM"), FIG. 1; for index of stimulation (IS): restimulation peptide 100 μM (printed "to 100 μM"), FIG. 4; for activity compared with that of the parent peptide 88-99: T cell restimulation
Protocol: BALB/c mice were immunized with the parent peptide 88-99H4 and in cell cultures the T lymphocytes of these mice were restimulated with the same peptide or with the analogues A-E. The cell proliferation was measured by the incorporation of tritiated thymidine and the index of stimulation (1S) relative to the wells without peptide was calculated. The tests are performed in triplicate and the experiment is performed several times in independent experiments.
The same experiments were performed with peptide G, (corresponding to the sequence SEQ ID NO: 7).
(§1) FIG. 1: Response tests on the T lymphocytes of BALB/c mice injected with the parent peptide 88-99 of the histone H4 subcutaneously with Freund's adjuvant, and stimulation ex-vivo with the parent peptide or the analogue E; the stimulation index is shown on the y-axis and the different concentrations of peptide are shown on the x-axis.
as §1, with “4:” for “1:”, “G;” for “E;”

[2] = test system: T lymphocytes of BALB/c mice injected with the modified peptide 88-99 of the histone H4; test: Mirror test: T lymphocytes of mice injected with the modified 88-99 H4 peptides, stimulated ex vivo with the analogue and the parent peptide 88-99; format: in vivo; conditions: for immunogenicity (induces responses against the homologous peptide): mice injected with the analogue subcutaneously with Freund's adjuvant; for cross reaction of the generated T cells with the parent peptide 88-99: mice injected with the analogue, ex vivo stimulation with parent peptide 88-99
Protocol: In addition, a mirror manipulation of the foregoing was performed, namely response tests on the T lymphocytes of mice injected with the modified peptides and stimulation ex vivo with the parent peptide (88-99). After injection of the analogues, analyses were performed on cell cultures with the said analogues and the parent peptide 88-99. The following results are observed:
In addition, a mirror experiment of the foregoing was performed, namely an experiment on mice injected with the peptide G and stimulation ex vivo with increasing quantities of the parent peptide (88-99).
FIG. 2: Response tests on the T lymphocytes of BALB/c mice injected with the modified peptide 88-99 A or with the modified peptide 88-99 D of the histone H4 subcutaneously with Freund's adjuvant. The stimulation index is shown on the y-axis and the different concentrations of peptide are shown on the x-axis.
FIG. 3: Response tests on the T lymphocytes of BALB/c mice injected with the modified peptide 88-99 E of the histone H4 subcutaneously with Freund's adjuvant. The stimulation index is shown on the y-axis and the different concentrations of peptide are shown on the x-axis.
FIG. 5: Response tests on the T lymphocytes of BALB/c mice injected with the modified peptide 88-99 G of the histone H4 subcutaneously with Freund's adjuvant. The stimulation index is shown on the y-axis and the different concentrations of peptide are shown on the x-axis.

Substance	index of stimulation (IS) relative to the wells without peptide [1]	index of stimulation (IS) [1]	activity compared with that of the parent peptide 88-99 [1]	immunogenicity (induces responses against the homologous peptide) [2]	cross reaction of the generated T cells with the parent peptide 88-99 [2]
H-Tyr-Ala-Leu-Lys-Arg-Gln-Gly-Arg-Thr-Leu-Tyr-Gly-OH (H-YALKRQGRTLYG-OH; listed as Homo sapiens) [parent peptide 88-99H4, reference compound]	6.7	16.9			
^88H2N-Tyr-Ala-Leu-Lys-Arg-Gln-Gly-Arg-Thr-Nα-hLeu-Nα-hTyr-Gly-OH^99 (H-YALKRQGRT[NαhLeu][NαhTyr]G-OH; also: Nα-homo leucine and tyrosine residues) [peptide G]		16.6	analogous	immunogenic	react by cross reaction with the homologous peptide G and in particular with the parent peptide with the same intensity
^88H2N-Tyr-Ala-Leu-Lys-Arg-Gln-Gly-Arg-Thr-Nα-hLeu-Tyr-Gly-OH^99 (H-YALKRQGRT[NαhLeu]YG-OH; also: Nα-homo leucine residue) [peptide E]	7.7		analogous, or even superior depending on the experiments	immunogenic	react by cross reaction with the parent peptide; also recorded: cross reacts perfectly
^88H2N-Tyr-Ala-Leu-Nα-hLys-Arg-Gln-Gly-Arg-Thr-Leu-Tyr-Gly-OH^99 (H-YAL[NαhLys]RQGRTLYG-OH; also: Nα-homo amino acid residue) [peptide D]				immunogenic	no cross reaction with the parent peptide
^88H2N-Tyr-Nα-hAla-Leu-Lys-Arg-Gln-Gly-Arg-Thr-Leu-Tyr-Gly-OH^99 (H-Y[NαhAla]LKRQGRTLYG-OH; also: Nα-homo amino acid residue) [peptide A]				immunogenic	no cross reaction with the parent peptide
